Data from patent publication US20040013643A1, “Methods for treatment of multiple sclerosis with statins” (Novlmmune S.A., priority 2000, published 2004).
Entries after “also recorded” stand apart in the source; their conditions may differ.

What was measured:
CD40 mediated pathways = assay: Cytokine release (MCP-1, IL-6, IL-8) from endothelial cells activated by CD40L, ELISA; format: cell-based, human; conditions: ECs; CD154 stimulation with statin; L-mevalonate added
Procedure: Cytokines assay. […] Experiments were performed in the presence of polymyxin B (1 μg/ml). Antibody binding was detected by adding substrate (R&D), and absorbance measured at 450 nm using a Dynatech plate reader. The amount of IL-6, IL-8 and MCP-I detected was calculated from a standard curve prepared with the recombinant protein. Samples were assayed in duplicates.
To investigate the functional consequences of inhibition of CD40 expression by statins on Endothelial Cells activation by CD40L, secreted cytokines were analyzed such as Interleukin-6 (IL-6), interleukin-8 (IL-8), macrophages chemoattractant protein-1 (MCP-1).

CD40 = assay: IFN-γ induced CD40 expression on human vascular endothelial cells (Western blot, FACS); format: cell-based; conditions: ECs
Procedure: Cell isolation and culture. Human vascular endothelial cells (ECs) were isolated from saphenous veins and mammary arteries by collagenase treatment (Worthington Biochemicals), and cultured in dishes coated with gelatin (Difco). Cells were maintained in medium 199 (1 4199; BioWhittaker) supplemented with 100 U/ml penicillin/streptomycin (BioWhittaker), 5% FCS (Gibco), 100 μg/ml heparin (Sigma) and 50 μg/ml ECGF (endothelial cell growth factor; Pel-Freez Biological). Human vascular smooth muscle (SMCs) cells were isolated from human saphenous veins and mammary arteries by explant outgrowth, and cultured in DMEM (BioWhittaker) supplemented with 1% L-glutamine (BioWhittaker), 1% penicillin/streptomycin, and 10% FCS. Both cell types were subculture following trypsinization (0.5% trypsin (Worthington Biochemicals)/0.2% EDTA (EM Science)) in P100-culture dishes (Becton Dickinson). Culture media and FCS contained less than 40 pg LPS/ml as determined by chromogenic Limulus amoebocyte-assay analysis (QLC1000; BioWhittaker).
Western blot analysis. Cells were harvested in ice-cold RIPA solubilization buffer, and total amounts of protein were determined using a bicinchoninic acid quantification assay (Pierce, Rockford, Ill.). Twenty μg of total protein/lane were separated by SDS/PAGE under reducing conditions and blotted to polyvinylidene difluoride membranes (Millipore Corp, Bedford, Mass.) using a semidry blotting apparatus (Bio-Rad, Hercules, Calif.). Blots were blocked overnight in 5% defatted dry milk/PBS/0.1% Tween, and then incubated for 1 hour at room temperature with primary antibody (1:40) (rabbit polyclonal anti-CD40 Santa Cruz, San Diego, Calif.), or mouse monoclonal anti-human P-actin (1:5000) (Phanningen) for control of loading. This was followed by a 1 hour incubation with secondary peroxidase-conjugated antibody (1:10′000), (Jackson Immunoresearch, West Grove, Pa.). All steps were performed at room temperature and in between incubation steps cells were rinsed with PBS/0.1% Tween. lmmunoreactivity was detected using the enhanced chemiluminescence detection method according to the manufacturer's instructions. (Amersharn, Ddbendorf, Switzerland), and subsequent exposure of the membranes to x-ray film. Analysis of quantification of detection was performed using AIDA software.
Flow cytometry. Cells were incubated with FITC-conjugated specific antibody (60 min, […]) and analyzed in a Becton Dickinson FACScan flow cytometer. At least 20.000 viable cells were analyzed per condition. Data were analyzed using […] software (Becton Dickinson).
Surface CD40 expression was analyzed by […] after 24 hrs.

MHC class II = conditions: Atorvastatin, Lovastatin, Pravastatin compared; FIG. 1a
Procedure: Cell isolation and culture. […] Flow cytometry. […] Data were analyzed using […] software (Becton Dickinson).

Compound: L-mevalonate
- reversal of the statin effect by addition of L-mevalonate (CD40 mediated pathways): significantly reverses the process

Compound: CC[C@H](C)C(=O)O[C@H]1C[C@@H](C)C=C2C=C[C@H](C)[C@H](CC[C@@H]3C[C@@H](O)CC(=O)O3)[C@H]21 [Lovastatin]
- IFN-γ induced CD40 expression (CD40; IFN-γ 500 U/ml, 24 hrs): decreased

Compound: CC(C)c1c(C(=O)Nc2ccccc2)c(-c2ccccc2)c(-c2ccc(F)cc2)n1CC[C@@H](O)C[C@@H](O)CC(=O)O [Atorvastatin]
- relative potency as MHC class II repressor among the forms tested (MHC class II): most powerful MHC class II repressor
- IFN-γ induced CD40 expression (CD40; IFN-γ 500 U/ml, 24 hrs): repressed this induction of CD40 in a dose-dependant manner; also recorded: decreases IFN-γ induced CD40 protein expression on human atheroma-associated cells in a dose-dependant manner
- concentration range over which the effect on IFN-γ induced CD40 was observed (CD40; IFN-γ 500 U/ml, 24 hrs, FIG. 7): 0.08 to 0.5 µM
- IFN-γ induced CD40 expression (CD40; IFN-γ 500 U/ml, 24 hrs, listed as atorvastatin): decreased
- effect on IFN-γ induced CD40 in the presence of L-mevalonate (CD40; with L-mevalonate): markedly reduced
- CD40 expression, treatment with statin alone (CD40; without IFN-γ): had an effect on CD40 expression
